We go through 5 compounds from patent publication US20250257075A1, “MACROCYCLIC INHIBITORS OF KRAS FOR THE TREATMENT OF CANCER” (Hoffmann-La Roche Inc., priority 2022, published 2025).

A word on the IC50: it is the point on the concentration scale where inhibition reaches its midpoint. Read a low IC50 as greater potency.

Some results are limits rather than exact numbers.

In test [1] the test system is phosphorylation of ERK, KRAS G12C in NCI-H358 cells. The experiment in a line: pERK inhibition assay, G12C. The class given is cell-based, human. Particulars: Homo sapiens; NCI-H358, 4 hours of incubation. As for the experimental part: (§1) This assay is to measure the ability of test compounds in inhibiting the phosphorylation of ERK, the downstream signaling of KRAS G12C in NCI-H358 cells, KRAS G12D in AGS cells, and KRAS G12V in SW620. NCI-H358 (ATCC-CRL5807) cells, AGS (ATCC-CRL-1739) cells, SW620 (ATCC-CCL-227) cells were all grown and maintained using RPMI-1640 medium (Thermo Fisher Scientific) with 10% fetal bovine serum and 1% penicillin/streptomycin. On the day prior to compound addition, cells were plated in tissue culture-treated 96 well plates (Corning-3699) at a density of 30,000 cell/well, 20,000 cell/well, 30,000 cell/well for NCI-H358, AGS and SW620 respectively, and allowed for attachment overnight. Diluted compounds were then added in a final concentration of 0.5% DMSO. After 4 hours of incubation, the medium was removed, 100 μL of 4% formaldehyde was added, and the assay plates were incubated at room temperature for 20 minutes. The plates were then washed once with phosphate buffered saline (PBS), and permeabilized with 100 μL of chilled methanol for 10 minutes. Non-specific antibody binding to the plates was blocked using 50 μL 1×BSA blocking buffer (Thermo-37520, 10-fold dilution by Phosphate-Buffered Saline Tween (PBST) for at least 1 hour at room temperature.
(§2) The amount of phosphor-ERK was determined using an antibody specific for phosphorylated form of ERK. Primary antibody (pERK, CST-4370, Cell Signaling Technology) was diluted 1:300 in blocking buffer, with 50 μL aliquoted to each well, and incubated overnight at 4° C. Cells was washed five times for 5 minutes with PBST. Secondary antibody (HRP-linked anti-rabbit IgG, CST-7074, Cell Signaling Technology) was diluted 1:1000 in blocking buffer, and 50 μL was added to each well and incubated 1-2 hrs at room temperature. Cells was washed 5 times for 5 minutes with PBST, 100 μL TMB ELISA substrate (abcam-ab171523) were added and gently shake for 20 minutes. 50 μL stop solution (abcam-ab171529) were added, and then read the signal (OD450) by EnVision.
(§3) IC50 was determined by fitting a 4-parameter sigmoidal concentration response model.

Test [2] deals with phosphorylation of ERK, KRAS G12D in AGS cells. Description: pERK inhibition assay, G12D. The class given is cell-based, human. The following applies: Homo sapiens, 4 hours of incubation. The procedure: as §1, §2, §3
The test system of test [3] is phosphorylation of ERK, KRAS G12V in SW620. Description: pERK inhibition assay, G12V. Particulars: Homo sapiens, SW-620; SW620, 4 hours of incubation. The class given is cell-based, human. The procedure: as §1, §2, §3
The test system of another test is AGS cells (KRAS G12D). The experiment in a line: Cell viability assay, G12D. The following applies: Homo sapiens, 72 hrs, Cell Counting Kit-8. The class given is cell-based, human. As for the experimental part: (§4) The purpose of this cellular assay was to determine the effects of test compounds on the proliferation of human cancer cell lines NCI-H358 (ATCC-CRL5807) cells, AGS (ATCC-CRL-1739) cells, SW620 (ATCC-CCL-227) over a 3-day treatment period by quantifying the amount of NADPH present at endpoint using Cell Counting Kit-8.
(§5) Cells were seeded at 5,000 cells/well (NCI-H358), 2,000 cells/well (AGS) 2,000 cells/well (SW620) in 96-well assay plates (Corning-3699) and incubated overnight. On the day of the assay, diluted compounds were then added in a final concentration of 0.5% DMSO. After 72 hrs incubation, a tenth of the volume of cell counting kit 8 (Dnjindo-CK04) was added into each well. Read the signal (OD450 minus OD650) using EnVision after 2 hrs incubation. IC50 was determined by fitting a 4-parameter sigmoidal concentration response model.

The target in a further test is T1, KRAS G12C-BRAF complex (Homo sapiens, UniProt P01116+P62937, G12C).
T1 construct: expressed in transfected cells
T1 sequence (P01116 1-188 isoform P01116-2 G12C): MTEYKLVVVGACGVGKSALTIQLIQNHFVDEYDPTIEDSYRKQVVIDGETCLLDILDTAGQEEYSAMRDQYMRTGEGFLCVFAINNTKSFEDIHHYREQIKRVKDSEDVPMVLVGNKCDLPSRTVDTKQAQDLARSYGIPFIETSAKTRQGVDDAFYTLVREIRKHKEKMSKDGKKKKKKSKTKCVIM
T1 sequence (P62937 whole entry): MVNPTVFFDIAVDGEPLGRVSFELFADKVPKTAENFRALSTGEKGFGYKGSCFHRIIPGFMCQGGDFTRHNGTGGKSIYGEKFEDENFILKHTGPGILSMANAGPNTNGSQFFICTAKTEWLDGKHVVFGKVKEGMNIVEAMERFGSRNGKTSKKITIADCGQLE
Description: KRAS G12C-BRAF NanoBit assay in HEK293 cells. The test is classed as cell-based. Particulars: HEK293 stable cell pool, 3 hours of incubation. As for the experimental part: This assay is to measure the ability of tested compounds in disruption of the KRAS G12C-BRAF complex at the cellular level, we established the NanoBit cellular assay in mammalian HEK293 (ATCC) cells. HEK293 cells were grown and maintained using DMEM medium (Thermo Fisher Scientific) with 10% fetal bovine serum and 1% penicillin/streptomycin. Both KRAS G12C and BRAF RBD were cloned into the NanoBit vectors ([…] vectors system, Promega) with the orientations SmBit-KRAS G12C and BRAF RBD-LgBit, respectively, and co-transfected into HEK293 cells. Cells were then selected with 100 μg/mL Hygromycin B (10687010, Thermo Fisher) and Blasticidin (5 μg/mL) for 4 weeks to get the stable cell pool. On the day of the assay, 75 nL of compound solution was presented in a 384-well assay plate as a 16-point 3-fold dilution starting from a final concentration of 30 μM in DMSO. Then cells were seeded at 10,000 cells/25 μL/well in a 384-well plate. After 3 hours of incubation, 6 μL of volume of Nano-Glo® Live Cell Substrate (Promega) was added into each well. Monitor luminescence using ultra384 model in Envision at 20 minutes. Compounds that facilitate disruption of the KRAS G12C-BRAF RBD complex were identified as those eliciting a decrease of luminescence relative to DMSO control wells.

The test system of test [4] is NCI-H358 cells (KRAS G12C). The experiment in a line: Cell viability assay, G12C. The class given is cell-based, human. The following applies: Homo sapiens; NCI-H358, 72 hrs, Cell Counting Kit-8. The procedure: as §4, §5
In general terms: Formazan colour is commonly taken as a measure of viable cells.

In another test the test system is SW620 cells (KRAS G12V). Description: Cell viability assay, G12V. The class given is cell-based, human. Particulars: Homo sapiens, SW-620; SW620, 72 hrs, Cell Counting Kit-8. As for the experimental part: as §4, §5

As for `CCn1c(-c2cc(N3CCN(CC(F)(F)F)CC3)cnc2[C@H](C)OC)c2c3cc(c(F)cc31)-c1csc(n1)C[C@H](NC(=O)[C@H](C(C)C)N(C)C(=O)N1CC(C#CC(F)(F)F)C1)C(=O)N1CCC[C@H](N1)C(=O)OCC(C)(C)C2` (atropisomer, axis not shown; (M)) [Example 15, N-[(1S)-1-[[(7S,13S)-21-ethyl-24-fluoro-(20M)-20-[2-[(1S)-1-methoxyethyl]-5-[4-(2,2,2-trifluoroethyl)piperazin-1-yl]-3-pyridyl]-17,17-dimethyl-8,14-dioxo-15-oxa-4-thia-9,21,27,28-tetrazapentacyclo[17.5.2.1^2,5.1^9,13.0^22,26]octacosa-1(25),2,5(28),19,22(26),23-hexaen-7-yl]carbamoyl]-2-methyl-propyl]-N-methyl-3-(3,3,3-trifluoroprop-1-ynyl)azetidine-1-carboxamide], the IC50 in test [1] is 0.02 µM; in test [2] it was > 10 µM; in test [3] it was 0.021 µM.
As to `CO[C@@H](C)c1ncc(N2CCN(C)CC2)cc1-c1c2c3cc(c(F)cc3n1CC(F)(F)F)-c1csc(n1)C[C@H](NC(=O)[C@H](C(C)C)N(C)C(=O)[C@H]1C[C@@H](C#Cc3nccc(C(F)(F)F)n3)C1)C(=O)N1CCC[C@H](N1)C(=O)OCC(C)(C)C2` (atropisomer, axis not shown; (M)) [Example 16, cis-N-[(1S)-1-[[(7S,13S)-24-fluoro-(20M)-20-[2-[(1S)-1-methoxyethyl]-5-(4-methylpiperazin-1-yl)-3-pyridyl]-17,17-dimethyl-8,14-dioxo-21-(2,2,2-trifluoroethyl)-15-oxa-4-thia-9,21,27,28-tetrazapentacyclo[17.5.2.1^2,5.1^9,13.0^22,26]octacosa-1(25),2,5(28),19,22(26),23-hexaen-7-yl]carbamoyl]-2-methyl-propyl]-N-methyl-3-[2-[4-(trifluoromethyl)pyrimidin-2-yl]ethynyl]cyclobutanecarboxamide], the IC50 is 0.021 µM in test [1]; 0.743 µM with AGS cells (KRAS G12D); > 10 µM in test [2]; 0.209 µM against KRAS G12C-BRAF complex; 0.011 µM in test [4]; 0.237 µM in the test on SW620 cells (KRAS G12V). In test [3], the IC50 is 0.031 µM.
As for `CO[C@@H](C)c1ncc(N2CCN(CC(F)(F)F)CC2)cc1-c1c2c3cc(c(F)cc3n1CC(F)(F)F)-c1csc(n1)C[C@H](NC(=O)[C@H](C(C)C)N(C)C(=O)N1CC(C#CC(F)(F)F)C1)C(=O)N1CCC[C@H](N1)C(=O)OCC(C)(C)C2` (atropisomer, axis not shown; (M)) [Example 18, N-[(1S)-1-[[(7S,13S)-24-fluoro-(20M)-20-[2-[(1S)-1-methoxyethyl]-5-[4-(2,2,2-trifluoroethyl)piperazin-1-yl]-3-pyridyl]-17,17-dimethyl-8,14-dioxo-21-(2,2,2-trifluoroethyl)-15-oxa-4-thia-9,21,27,28-tetrazapentacyclo[17.5.2.1^2,5.1^9,13.0^22,26]octacosa-1(25),2,5(28),19,22(26),23-hexaen-7-yl]carbamoyl]-2-methyl-propyl]-N-methyl-3-(3,3,3-trifluoroprop-1-ynyl)azetidine-1-carboxamide], the IC50 in test [1] is 0.051 µM; in the test with AGS cells (KRAS G12D), > 10 µM; in test [2], > 10 µM; at KRAS G12C-BRAF complex, 0.24 µM; in test [4], 0.006 µM; with SW620 cells (KRAS G12V) it was > 10 µM. Further, in test [3], inhibition was half-maximal at 0.048 µM (IC50).
Regarding `CCn1c(-c2cc(N3CCOCC3)cnc2[C@H](C)OC)c2c3cc(c(F)cc31)-c1csc(n1)C[C@H](NC(=O)[C@H](C(C)C)N(C)C(=O)[C@H]1C[C@@H](C#Cc3nccc(C(F)(F)F)n3)C1)C(=O)N1CCC[C@H](N1)C(=O)OCC(C)(C)C2` (atropisomer, axis not shown; (M)) [Example 21, cis-N-[(1S)-1-[[(7S,13S)-21-ethyl-24-fluoro-(20M)-20-[2-[(1S)-1-methoxyethyl]-5-morpholino-3-pyridyl]-17,17-dimethyl-8,14-dioxo-15-oxa-4-thia-9,21,27,28-tetrazapentacyclo[17.5.2.1^2,5.1^9,13.0^22,26]octacosa-1(25),2,5(28),19,22(26),23-hexaen-7-yl]carbamoyl]-2-methyl-propyl]-N-methyl-3-[2-[4-(trifluoromethyl)pyrimidin-2-yl]ethynyl]cyclobutanecarboxamide], the IC50 is 0.019 µM in test [1]; 0.231 µM in the test with AGS cells (KRAS G12D); > 10 µM in test [2]; 0.085 µM at KRAS G12C-BRAF complex; 0.02 µM in test [4]; 0.222 µM in the test on SW620 cells (KRAS G12V). For the same compound, half-maximal inhibition in test [3] (IC50) was put at 0.076 µM.
Regarding `CO[C@@H](C)c1ncc(N2CCOCC2)cc1-c1c2c3cc(c(F)cc3n1CC(F)(F)F)-c1csc(n1)C[C@H](NC(=O)[C@H](C(C)C)N(C)C(=O)[C@H]1C[C@@H](C#CC(F)(F)F)C1)C(=O)N1CCC[C@H](N1)C(=O)OCC(C)(C)C2` (atropisomer, axis not shown; (M)) [Example 22, cis-N-[(1S)-1-[[(7S,13S)-24-fluoro-(20M)-20-[2-[(1S)-1-methoxyethyl]-5-morpholino-3-pyridyl]-17,17-dimethyl-8,14-dioxo-21-(2,2,2-trifluoroethyl)-15-oxa-4-thia-9,21,27,28-tetrazapentacyclo[17.5.2.1^2,5.1^9,13.0^22,26]octacosa-1(25),2,5(28),19,22(26),23-hexaen-7-yl]carbamoyl]-2-methyl-propyl]-N-methyl-3-(3,3,3-trifluoroprop-1-ynyl)cyclobutanecarboxamide], the IC50 is 0.013 µM in test [1]; > 10 µM with AGS cells (KRAS G12D); 0.172 µM in test [2]; 0.036 µM against KRAS G12C-BRAF complex; 0.012 µM in test [4]; 0.152 µM with SW620 cells (KRAS G12V). For the same compound, the IC50 in test [3] was determined as 0.078 µM.
